Assays:
PDE9A [1] = target: T1, PDE9A (Homo sapiens, UniProt O76083); assay: Effect of known PDE inhibitors on PDE9A activity (hydrolysis of 3H-cGMP); type: biochemical; conditions: cGMP as substrate, FIG. 5; for inhibition of PDE9A activity: up to 100 μM of inhibitor
T1 construct: A 1.8 kb region of PDE9A encoding the full length protein (nucleotides 61-1842) was amplified and cloned; made in house; host or cells: Sf9 insect cells (baculovirus, pFASTBAC)
Experimental: A 1.8 kb region of PDE9A encoding the full length of the protein was cloned into the baculovirus transfer vector pFASTBAC, expressed in sf9 cells, and a cell lysate prepared from these cells for enzyme assays. […] PDE9A was not inhibited by up to 100 μM of rolipram (inhibitor of PDE4), dipyridamole (inhibitor of PDE2, 4, 5, and 6), SKF94120 (inhibitor of PDE3), vinpocetine (inhibitor of PDE1), or IBMX (non-specific PDE inhibitor). […] Of particular note is the expression of PDE9A in Crohn's disease.
PDE9A to be used for assay was prepared from transfected Sf9 cells. Cells were harvested by centrifugation, resuspended in homogenization buffer (20 mM Tris-HCl, 2 mM benzamidine, 1 mM EDTA, 0.25 M sucrose, 100 uM PMSF, pH 7.5 ) at 1×10^7 cells/ml, and disrupted using a Branson sonicating probe (3×10 second pulses). Cellular debris was removed by centrifugation at 14,000×g for 10 minutes. The supernatant was stored at −70° C.
PDE activity was assayed by measuring the conversion of ^3H-cGMP to ^3H-guanosine in the presence of PDE9A and 5′ nucleotidase. A one-step assay was run using a 100 uL assay containing 50 mM Tris-HCl pH 7.5, 10 mM MgCl^2, 0.1 unit 5′ nucleotidase (from Crotalus atrox venom), and 0.0064-2.0 uM ^3H-cGMP. The reaction was started by the addition of 25 μl of diluted enzyme supernatant. Reactions were run directly in mini Poly-Q scintillation vials (Beckman Instruments Inc., Fullerton Calif.). Assays were incubated at 37° C. for a time period that would yield less than 15% cGMP hydrolysis in order to avoid non-linearity associated with product inhibition. The reaction was stopped by the addition of 1 ml of Dowex AG1x8 (Cl form) resin (1:3 slurry). Three ml of scintillation fluid were added, and the vials were mixed. The resin in the vials was allowed to settle for 1 hr before counting. Soluble radioactivity associated with ^3H-guanosine was quantitated using a Beta scintillation counter. The amount of radioactivity recovered is proportional to the activity of PDE9A in the reaction.

PDE9A [2] = target: T1, PDE9A; assay: Kinetics of enzyme activity of recombinant PDE9A (Lineweaver-Burke analysis); type: biochemical; conditions: FIG. 3, read-out: Km of PDE9A for cGMP as substrate

T1 sequence (O76083 whole entry): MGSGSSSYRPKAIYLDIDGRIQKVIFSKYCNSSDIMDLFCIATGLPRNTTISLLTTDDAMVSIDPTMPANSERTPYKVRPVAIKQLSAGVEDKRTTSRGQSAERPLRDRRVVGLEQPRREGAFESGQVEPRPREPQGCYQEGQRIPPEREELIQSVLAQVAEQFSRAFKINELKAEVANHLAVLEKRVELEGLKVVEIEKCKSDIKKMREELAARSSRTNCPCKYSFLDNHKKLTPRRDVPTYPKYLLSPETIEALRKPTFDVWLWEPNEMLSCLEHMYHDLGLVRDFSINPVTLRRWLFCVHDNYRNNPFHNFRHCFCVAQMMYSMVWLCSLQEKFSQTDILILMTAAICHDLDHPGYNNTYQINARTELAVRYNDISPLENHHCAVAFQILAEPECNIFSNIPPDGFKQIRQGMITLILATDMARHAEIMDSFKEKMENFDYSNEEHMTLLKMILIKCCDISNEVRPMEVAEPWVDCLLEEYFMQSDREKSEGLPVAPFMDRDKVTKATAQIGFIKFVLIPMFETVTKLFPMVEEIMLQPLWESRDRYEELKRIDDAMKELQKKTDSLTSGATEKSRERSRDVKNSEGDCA

Row | inhibition of PDE9A activity (PDE9A [1]) | Structure (SMILES) | also measured
1 | not inhibited | CCOC(=O)C1=C[C@]2(CC)CCCN3CCc4c(n1c1ccccc41)[C@@H]32 [vinpocetine] | –
2 | not inhibited | COc1ccc(C2CNC(=O)C2)cc1OC1CCCC1 (stereo not shown) [rolipram] | –

Second part, the compound before the results:

Row | Structure (SMILES) | inhibition of PDE9A activity (PDE9A [1]) | also measured
3 | Nc1nc2c(ncn2[C@@H]2O[C@@H]3COP(=O)(O)O[C@H]3[C@H]2O)c(=O)[nH]1 [cGMP] | – | Km (PDE9A [2]): 0.17 µM
4 | CC(=O)Nc1ccc(-c2c[nH]c(=O)cn2)cc1 [SKF94120] | not inhibited | –
5 | CC(C)Cn1c(=O)n(C)c(=O)c2[nH]cnc21 [IBMX] | not inhibited | –
6 | OCCN(CCO)c1nc(N2CCCCC2)c2nc(N(CCO)CCO)nc(N3CCCCC3)c2n1 [dipyridamole] | not inhibited | –
7 | CCCOc1ccccc1-c1nc2nn[nH]c2c(=O)[nH]1 [zaprinast] | – | IC50 (PDE9A [1]; recombinant PDE9A from Sf9 cell lysate, read-out: IC50 for inhibition of PDE9A): 35 µM

Source: patent US6858714B2, “Cyclic GMP phosphodiesterase” (Incyte Corporation, priority 1997, dated 2005)
